This is an account of results in patent US12396461B2, “Functional peptides having antimicrobial activity against phytopathogenic microorganisms” (TOYOTA JIDOSHA KABUSHIKI KAISHA, priority 2019, dated 2025).

Several values for one entry are separate records, joined by “and”; a condition that tells them apart may be missing. Equal entries are not always repeated. Where two headings read alike, the source gives them in different places.

The subject of one assay is Fusarium oxysporum. In kind it is cell-based. The arrangement: key to Plate antimicrobial activity test Fusarium oxysporum, level: a case where hyphae extended to the entire well and no antimicrobial activity was found is defined as “level 0,”; a case where hyphae extended to less than a half of the well and thus the peptide inhibited the growth of the hyphae is defined as “level 1,”; a case where ungerminated spores were present and the peptide partially inhibited the germination is defined as “level 2,”; a case where all spores were ungerminated and the peptide completely inhibited the germination is defined as “level 3.”.

Assay [1] relates to Colletotrichum destructivum. In words: Colletotrichum destructivum leaf inoculation test (Chinese cabbage leaf). The class given is in vivo. The conditions noted are these: Chinese cabbage leaf, 25° C. for 4 days, lesions by visual inspection, symbols ◯/Δ/X not defined. On the procedure:
In the present example, a suspension comprising Colletotrichum destructivum and a peptide to be tested was dropped on a plant leaf, and lesions were then observed by visual inspection to evaluate the antimicrobial activity of the tested peptide. First, the pores of Colletotrichum destructivum were suspended in water to result in a spore concentration of 5×10^5 spores/ml, so as to prepare a water suspension of spores. Subsequently, a peptide to be tested (TsORF6-1) was added to the water suspension of spores, so that the final concentration of the peptide to be tested became 0 μM, 1 μM, 10 μM or 100 μM. Thereafter, 10 μl each of the water suspension of spores containing the peptide to be tested was dropped on the front side and the back side of the leaf of Chinese cabbage (variety name: “Kigokoro 85”). In this condition, incubation was carried out at 25° C. for 4 days. Thereafter, the front and back sides of the leaf were observed by visual inspection.

In assay [2] the test system is Colletotrichum orbiculare. In kind it is cell-based. Details: key to Plate antimicrobial activity test Colletotrichum orbiculare, level: a case where hyphae extended to the entire well and no antimicrobial activity was found is defined as “level 0,”; a case where hyphae extended to less than a half of the well and thus the peptide inhibited the growth of the hyphae is defined as “level 1,”; a case where ungerminated spores were present and the peptide partially inhibited the germination is defined as “level 2,”; a case where all spores were ungerminated and the peptide completely inhibited the germination is defined as “level 3.”. The conditions noted are these: 25° C. for 1 day or 2 days, microscopic observation.

Assay [3] deals with plant pathogenic filamentous fungi. In kind it is cell-based. As to conditions: Table 3.
The subject of assay [4] is Colletotrichum destructivum. In kind it is cell-based. Details: key to Plate antimicrobial activity test Colletotrichum destructivum, level: a case where hyphae extended to the entire well and no antimicrobial activity was found is defined as “level 0,”; a case where hyphae extended to less than a half of the well and thus the peptide inhibited the growth of the hyphae is defined as “level 1,”; a case where ungerminated spores were present and the peptide partially inhibited the germination is defined as “level 2,”; a case where all spores were ungerminated and the peptide completely inhibited the germination is defined as “level 3.”. As to conditions: 25° C. for 1 day or 2 days, microscopic observation.

In the next assay the test system is Pyricularia oryzae. In kind it is cell-based. The arrangement: key to Plate antimicrobial activity test Pyricularia oryzae, level: a case where hyphae extended to the entire well and no antimicrobial activity was found is defined as “level 0,”; a case where hyphae extended to less than a half of the well and thus the peptide inhibited the growth of the hyphae is defined as “level 1,”; a case where ungerminated spores were present and the peptide partially inhibited the germination is defined as “level 2,”; a case where all spores were ungerminated and the peptide completely inhibited the germination is defined as “level 3.”. The conditions noted are these: 25° C. for 1 day or 2 days, microscopic observation.

Assay [5] relates to Botrytis cinerea. In kind it is cell-based. The arrangement: key to Plate antimicrobial activity test Botrytis cinerea, level: a case where hyphae extended to the entire well and no antimicrobial activity was found is defined as “level 0,”; a case where hyphae extended to less than a half of the well and thus the peptide inhibited the growth of the hyphae is defined as “level 1,”; a case where ungerminated spores were present and the peptide partially inhibited the germination is defined as “level 2,”; a case where all spores were ungerminated and the peptide completely inhibited the germination is defined as “level 3.”. As to conditions: 25° C. for 1 day or 2 days, microscopic observation.

The test system of assay [6] is Botrytis cinerea. In words: Botrytis cinerea leaf inoculation test (tomato leaf). The conditions noted are these: FIG. 2; PDB suspension spore solution containing 100 μl peptide; 25° C. for 2 days. In kind it is in vivo. The protocol:
In the present example, a suspension comprising Botrytis cinerea and a peptide to be tested was dropped on a plant leaf, and lesions were then observed by visual inspection to evaluate the antimicrobial activity of the tested peptide. First, the pores of Botrytis cinerea were suspended in a potato dextrose broth (PDB) to result in a spore concentration of 5×10^5 spores/ml, so as to prepare a PDB suspension spore solution. Subsequently, a peptide to be tested (TsORF6-1) was added to the PDB suspension spore solution, so that the final concentration of the peptide to be tested became 0 μM, 1 μM, 10 μM or 100 μM. Thereafter, 10 μl each of the PDB suspension spore solution containing the peptide to be tested was dropped on the front side and the back side of the leaf of tomato (variety name: “Momotaro Fight”). In this condition, incubation was carried out at 25° C. for 2 days. Thereafter, the front and back sides of the leaf were observed by visual inspection.

For the substance “VMIVV (listed as Solanum lycopersicum) [TsORF6-1-5aa-3, partial peptide of TsORF6-1, 5 amino acid residues]”, the “Plate antimicrobial activity test Fusarium oxysporum, level” value in the assay on Fusarium oxysporum amounted to 0. Also, the “Leaf inoculation test Chinese cabbage/Colletotrichum destructivum” value in assay [1] (peptide 100 μM) was “◯”. The “Plate antimicrobial activity test Colletotrichum orbiculare, level” value is listed as 0 in assay [2] (peptide 1 μM), 0 in assay [2] (peptide 10 μM) and 1 in assay [2] (peptide 100 μM). Further, in assay [3], the “germination inhibitory activity against plant pathogenic filamentous fungi, result in words” value (“germination inhibitory activity” for short) is “extremely excellent germination inhibitory activity”. Moreover, the figures for the “Plate antimicrobial activity test Colletotrichum destructivum, level” value in assay [4] (peptide 1 μM), in assay [4] (peptide 10 μM) and in assay [4] (peptide 100 μM) were 0, 0 and 1, respectively. The “Plate antimicrobial activity test Pyricularia oryzae, level” value with Pyricularia oryzae (peptide 1 μM), in the assay on Pyricularia oryzae (peptide 10 μM) and in the assay on Pyricularia oryzae (peptide 100 μM) was 0 throughout. The entries for the “Plate antimicrobial activity test Botrytis cinerea, level” value in the assay with Botrytis cinerea [5] (peptide 1 μM), in the assay with Botrytis cinerea [5] (peptide 10 μM) and in the assay with Botrytis cinerea [5] (peptide 100 μM) were 0, 0 and 1, respectively.
As to “MKVMIVVKTKVKNKKVAKMMVKEDEKNKRVITMKEELMVVAEEEAYRRV RGGMGW (MKVMIVVKTKVKNKKVAKMMVKEDEKNKRVITMKEELMVVAEEEAYRRVRGGMGW; listed as Solanum lycopersicum) [TsORF6, peptide consisting of 55 amino acid residues identified in tomato xylem sap; total chain]”, the “lesion of Botrytis cinerea on tomato leaf, result in words” value in the assay with Botrytis cinerea [6] is “a lesion of Botrytis cinerea was not observed”. Moreover, in the assay with Fusarium oxysporum, the “Plate antimicrobial activity test Fusarium oxysporum, level” value is 3 and 0. Further, the “Leaf inoculation test Chinese cabbage/Colletotrichum destructivum” value in assay [1] (peptide 10 μM) and in assay [1] (peptide 100 μM) was “◯” each time. Also, the “Plate antimicrobial activity test Colletotrichum orbiculare, level” value in assay [2] (peptide 1 μM) came to 0; in assay [2] (peptide 10 μM), 0; in assay [2] (peptide 100 μM), 1. Also, the “Plate antimicrobial activity test Colletotrichum destructivum, level” value in assay [4] (peptide 1 μM), in assay [4] (peptide 10 μM) and in assay [4] (peptide 100 μM) was 0 each time. In addition, the “Plate antimicrobial activity test Pyricularia oryzae, level” value is 0 in the assay on Pyricularia oryzae (peptide 1 μM), 0 in the assay with Pyricularia oryzae (peptide 10 μM) and 2 in the assay on Pyricularia oryzae (peptide 100 μM). Also, the “Plate antimicrobial activity test Botrytis cinerea, level” value in the assay on Botrytis cinerea [5] (peptide 1 μM) was found to be 0; in the assay on Botrytis cinerea [5] (peptide 10 μM) it was 0; in the assay with Botrytis cinerea [5] (peptide 100 μM) it was 3.
In the case of “MKVMI (listed as Solanum lycopersicum) [TsORF6-1-5aa-1, partial peptide of TsORF6-1, 5 amino acid residues]”, the “Plate antimicrobial activity test Fusarium oxysporum, level” value with Fusarium oxysporum amounted to 0. The “Leaf inoculation test Chinese cabbage/Colletotrichum destructivum” value in assay [1] (peptide 100 μM) was “◯”. Also, the “Plate antimicrobial activity test Colletotrichum orbiculare, level” value in assay [2] (peptide 1 μM) stood at 0; in assay [2] (peptide 10 μM) it was 0; in assay [2] (peptide 100 μM), 1. For the same substance, the “germination inhibitory activity” value in assay [3] was “extremely excellent germination inhibitory activity”. Also, the results for the “Plate antimicrobial activity test Colletotrichum destructivum, level” value in assay [4] (peptide 1 μM), in assay [4] (peptide 10 μM) and in assay [4] (peptide 100 μM) were 0, 0 and 1, respectively. Besides, the “Plate antimicrobial activity test Pyricularia oryzae, level” value was 0 in the assay on Pyricularia oryzae (peptide 1 μM), 0 in the assay with Pyricularia oryzae (peptide 10 μM) and 1 with Pyricularia oryzae (peptide 100 μM). The “Plate antimicrobial activity test Botrytis cinerea, level” value in the assay with Botrytis cinerea [5] (peptide 1 μM) is on record as 0; with Botrytis cinerea [5] (peptide 10 μM) it was 0; with Botrytis cinerea [5] (peptide 100 μM) it was 1.
As to “KVMIVVKT (listed as Solanum lycopersicum) [TsORF6-1-8aa-2, partial peptide of TsORF6-1, 8 amino acid residues]”, in the assay on Fusarium oxysporum, the “Plate antimicrobial activity test Fusarium oxysporum, level” value is 3 and 0. Moreover, the “Leaf inoculation test Chinese cabbage/Colletotrichum destructivum” value in assay [1] (peptide 100 μM) was “◯”. Further, the results for the “Plate antimicrobial activity test Colletotrichum orbiculare, level” value in assay [2] (peptide 1 μM), in assay [2] (peptide 10 μM) and in assay [2] (peptide 100 μM) were 0, 0 and 2, respectively. For the same substance, the “germination inhibitory activity” value in assay [3] is “extremely excellent germination inhibitory activity”. The “Plate antimicrobial activity test Colletotrichum destructivum, level” value in assay [4] (peptide 1 μM) came out at 0; in assay [4] (peptide 10 μM), 0; in assay [4] (peptide 100 μM) it was 2. Moreover, the figures for the “Plate antimicrobial activity test Pyricularia oryzae, level” value in the assay with Pyricularia oryzae (peptide 1 μM), in the assay on Pyricularia oryzae (peptide 10 μM) and with Pyricularia oryzae (peptide 100 μM) were 0, 0 and 2, respectively. Besides, the “Plate antimicrobial activity test Botrytis cinerea, level” value came out at 0 in the assay with Botrytis cinerea [5] (peptide 1 μM), 0 with Botrytis cinerea [5] (peptide 10 μM) and 3 in the assay on Botrytis cinerea [5] (peptide 100 μM).
For the substance “KVMIV (listed as Solanum lycopersicum) [TsORF6-1-5aa-2, partial peptide of TsORF6-1, 5 amino acid residues]”, the “Plate antimicrobial activity test Fusarium oxysporum, level” value with Fusarium oxysporum came out at 0. Further, the “Leaf inoculation test Chinese cabbage/Colletotrichum destructivum” value in assay [1] (peptide 100 μM) is “◯”. In addition, the “Plate antimicrobial activity test Colletotrichum orbiculare, level” value in assay [2] (peptide 1 μM) was determined as 0; in assay [2] (peptide 10 μM), 0; in assay [2] (peptide 100 μM), 1. The “germination inhibitory activity” value in assay [3] is listed as “extremely excellent germination inhibitory activity”. Also, the “Plate antimicrobial activity test Colletotrichum destructivum, level” value in assay [4] (peptide 1 μM) was determined as 0; in assay [4] (peptide 10 μM), 0; in assay [4] (peptide 100 μM), 1. The “Plate antimicrobial activity test Pyricularia oryzae, level” value in the assay on Pyricularia oryzae (peptide 1 μM), in the assay with Pyricularia oryzae (peptide 10 μM) and in the assay on Pyricularia oryzae (peptide 100 μM) was 0 each time. The “Plate antimicrobial activity test Botrytis cinerea, level” value in the assay on Botrytis cinerea [5] (peptide 1 μM) amounted to 0; with Botrytis cinerea [5] (peptide 10 μM) it was 0; with Botrytis cinerea [5] (peptide 100 μM), 1.
